Results reported in US20150336993A1, “MITOCHONDRIA-TARGETED THERANOSTIC AGENTS” (The Board of Trustees of the Leland Stanford Junior …, priority 2014, published 2015).
Where two headings read alike, the source gives them in different places.

Columns and labels:
NIH 3T3 cells = test: Cell proliferation assay in NIH 3T3 cells (direct cell counting); type: cell-based, mouse; details: NIH 3T3 fibroblasts, 3000 cells/well, incubated 4 days, viable cells directly counted, read-out: IC50 (half inhibitory concentration) against NIH 3T3
Experimental: (§1) To further confirm the relationship between cell uptake and antitumor activity, the half inhibitory concentrations (IC50) of these compounds against the U87MG cell line were measured. […] It should be noted that all these five compounds show minimum or even un-observable toxicity in the fibroblast cell line NIH 3T3 (IC50 all >100 μM, Table 1, FIG. 6), highlighting the treatment specificity of these mitochondrial targeted agents.
(§2) Both U87MG and NIH 3T3 cell lines at a density of 3000 cells/well were incubated in 96-well plates overnight. The culture medium was replaced with 200 μL of culture medium in which the testing compound dispersed at various concentrations (0.5-200 μM). After incubation for 4 days, the viable cell numbers were checked and directly counted under microscopy (10×). A minimum of 1 mm×1 mm area was counted from each of at least three widely separated regions of cell culture. The cell proliferation rate was calculated by the following formula: cell proliferation rate (%)=(average cell number of sample wells/average cell number of control wells×100. The intact culture medium was evaluated as a control.

U87MG cells [1] = test: Cell proliferation assay in U87MG cells (direct cell counting); type: cell-based, human; details: for IC50: 3000 cells/well, incubated 4 days, viable cells directly counted, read-out: IC50 (half inhibitory concentration) against U87MG
Experimental: Apart from the imaging studies, we then investigated anti-tumor activities of all F16 related compounds by studying their antiproliferative effects in U87MG and MDA-MB-231 cell lines. After exposure to 5 or 10 μM of the compounds in the cancer cells for 4 days, the cell proliferative ratios to the control were measured (see FIG. 5). […] The different antiproliferative activities imply that the antitumor potency of the F16 related compounds is cell-dependent. Meanwhile, substituents in F16 and F16-TPP analogues played distinct roles, for instance, introduction of a fluorine atom in F16 barely influences activity of FF16 (P>0.05), while substitution of fluorine and methyl groups apparently impacts F16-TPP analogues in the U87MG cell line at a higher concentration of 10 μM.
as §1, §2

U87MG cells [2] = test: Cell uptake and localization by fluorescence microscopy in U87MG cells; type: cell-based, human; details: 1 hour incubation, fluorescence signal in cells/PBS buffer, n=9
Experimental: The data was obtained by calculating by the following equation: Fluorescence signal in cell lines/Fluorescence signal in PBS buffer and normalized to F16 in the U87MG cell line. n=9. Data are presented as mean±SD.
Tumor cell uptake of all F16 related compounds were studied by incubating two cancer cell lines (U87MG and MDA-MB-231) with the probes for 1 hour and then imaging was performed with a fluorescent microscope. Meanwhile, to investigate the localization of the F16 derivatives, after incubation with the probes, cells were co-stained with the commercially available dye Mitotrack, which is widely used for mitochondria staining. […] Under eGFP filter set (ξex 450/490 nm, λem 515/565 nm), no significant autofluorescence of the cells were observed, making it convenient to study the relative uptake of the probes directly by comparing their fluorescence signals.
We then investigated the uptake of all the probes in U87MG and MDA-MB-231 cells at 1 hour incubation by quantitative analysis of fluorescent signals intensity of all F16 related compounds in the cells. The cellular uptake experiments were repeated nine times, and the relative cellular uptakes ability of different probes were calculated by comparing their percentage of cellular fluorescent signals and then normalized by that of F16 (FIG. 4). […]

IC50 (U87MG cells [1]; Homo sapiens, U-87 MG, 96 h) [µM] | IC50 (U87MG cells [1]) [µM] | Improvement of bioactivity relative to F16 (U87MG IC50) (U87MG cells [1]; fluorine substitution in F16) [fold] | SMILES | IC50 (NIH 3T3 cells; Mus musculus, NIH3T3, 96 h) [µM] | Relative uptake in U87MG cells, normalized to F16 (U87MG cells [2]) | IC50 (NIH 3T3 cells) [µM]
36.5 ± 1.1 |  |  | C[n+]1ccc(/C=C/c2c[nH]c3ccccc23)cc1.[I-] [F16, (E)-4-(1H-indol-3-ylvinyl)-N-methylpyridinium iodide, reference compound] | ~100 | ~1 | 
 | 28 ± 1.2 | ~1.3 | C[n+]1ccc(/C=C/c2c[nH]c3ccc(F)cc23)cc1.[I-] [FF16, (E)-4-(1H-5-fluro-indole-3-ylvinyl)-N-methylpyridinium iodide] |  | ~1 | ~491
